Measured values from patent US10336731B2, “Substituted 1H-indole-2-carboxamide compounds as indoleamine-2,3-dioxygenase inhibitors” (Merck Sharp & Dohme Corp., priority 2015, dated 2019).

target: human IDO protein (Homo sapiens (Human), UniProt P14902); assay: IDO biochemical coupled assay (formamidase, Ehrlich's reagent); conditions: 0.17 μM human IDO, 120 min pre-incubation, 45 μM L-Trp; read-out: hIDO biochemical assay pIC50 (converted)
Excerpt: (§1) For REF1-REF3 and Compounds 1-11, two different types of assay were employed: 1. An IDO biochemical coupled assay which utilised recombinantly produced and purified IDO enzyme in combination with the enzyme formamidase. This coupled enzyme system allowed conversion of N-formylkynurenine produced by IDO activity to kynurenine which was then quantified by fluorescence following addition of Erhlich's Reagent. 2. A cell-based assay for detecting the effect of test compounds on kynurenine production in cancer cells. This assay utilised cancer cells which expressed IDO and as such was used as a means of testing compound activity at the enzyme in a cell-based context. The protocols for these are set out below.
0.17 μM of human IDO protein was pre-incubated for 120 min at RT with test compounds in the presence of 50 mM KPO4, pH 7.0, 0.5 mM EDTA, 0.5 mM EGTA, 0.05% Triton X-100, 20 mM ascorbate, 500 U/ml catalase, 10 μM methylene blue at RT in a 384 well plate. 0.05 μg/μl kynurenine formamidase and 45 μM L-tryptophan (L-Trp) were added and the assays were incubated at RT for 40 min. Assays were stopped and the level of kynurenine was determined by incubation with Ehrlich's reagent to a final concentration of 1.33% at RT for 5 min. Fluorescence intensity was read at 475 nm/530 nm.

Chain of human IDO protein (P14902 whole entry): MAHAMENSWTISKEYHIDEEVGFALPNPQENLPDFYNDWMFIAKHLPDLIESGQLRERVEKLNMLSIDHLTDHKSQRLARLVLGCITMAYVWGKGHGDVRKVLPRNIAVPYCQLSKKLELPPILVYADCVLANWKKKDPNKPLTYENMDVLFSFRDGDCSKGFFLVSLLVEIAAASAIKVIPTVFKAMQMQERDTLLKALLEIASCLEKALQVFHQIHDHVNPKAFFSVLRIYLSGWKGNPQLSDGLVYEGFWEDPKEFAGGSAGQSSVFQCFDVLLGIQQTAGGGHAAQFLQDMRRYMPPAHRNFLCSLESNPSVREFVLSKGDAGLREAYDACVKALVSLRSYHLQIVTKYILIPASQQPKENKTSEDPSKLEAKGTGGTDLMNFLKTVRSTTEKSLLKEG

| SMILES | IC50 |
| --- | --- |
| C[C@H]1C[C@@]1(NC(=O)c1cc2cc(Br)ccc2[nH]1)c1cnn(C)c1 (racemic) [Compound 2, racemic] | 398 nM |

target: IDO (SKOV-3 cells) (Homo sapiens (Human), UniProt P14902); assay: IDO cell-based assay (kynurenine production in IFNγ-induced SKOV-3 cells); conditions: IFNγ 500 ng/ml, 500 μM L-Trp, 48 h, read-out: pIC50, IDO cellular assay (SKOV3) (converted)
Sequence (P14902 whole entry): as above
Excerpt: as §1
SKOV-3 ovary adenocarcinoma (ATCC) cells were grown in McCoys 5A+L-glutamax medium supplemented with 15% foetal bovine serum. On the day of assay, cells were detached using trypsin-EDTA (0.25% v/v), re-suspended in assay media (RPMI 1640 phenol red free+L-glutamine supplemented with 10% dialysed foetal bovine serum). SKOV-3 cells were seeded at 40K cells per well into 96-well plates containing test samples/vehicle control together with 500 μM L-Trp. Cells were then incubated for 48 h at 37° C. 5% CO2. IFNγ was also added at 500 ng/ml for the 48 h incubation in order to induce expression of IDO. Plates were centrifuged and the supernatant was removed and incubated for 5 min in the presence of 1% Erhlich's reagent. Kynurenine levels were then quantified by measuring absorbance at 490 nm.

| SMILES | IC50 |
| --- | --- |
| C[C@H]1C[C@@]1(NC(=O)c1cc2cc(Br)ccc2[nH]1)c1cnn(C)c1 (racemic) [Compound 2, racemic] | 31.6 nM |
| C[C@H]1C[C@@]1(NC(=O)c1cc2cc(Cl)ccc2[nH]1)c1cnn(-c2ccc(Cl)cc2)c1 (single isomer, unassigned) [Compound 10, enantiomer 1] | 34.7 nM |
| C[C@H]1C[C@@]1(NC(=O)c1cc2cc(Cl)ccc2[nH]1)c1cnn(-c2ccc(Cl)cc2)c1 (single isomer, unassigned) [Compound 10, enantiomer 2] | 11.7 nM |
| CCc1nn(C)cc1C1(NC(=O)c2cc3cc(Cl)ccc3[nH]2)CC1 [Compound 3] | 89.1 nM |
| CC(C)c1nn(C)cc1C1(NC(=O)c2cc3cc(Cl)ccc3[nH]2)CC1 [Compound 4] | 87.1 nM |
| Cn1cc(C2(NC(=O)c3cc4cc(Br)cc(F)c4[nH]3)CC2)cn1 [Compound 6] | 83.2 nM |
| Cn1cc(C2(NC(=O)c3cc4cc(Cl)ccc4[nH]3)CC2)cn1 [REF 1, reference compound] | 126 nM |
| CCn1cc(C2(NC(=O)c3cc4cc(Cl)ccc4[nH]3)CC2)cn1 [REF 2, reference compound] | 186 nM |
| Cn1cc(C2(NC(=O)c3cc4cc(Br)ccc4[nH]3)CC2)cn1 [REF 3, reference compound] | 182 nM |

Further lines, results first:

| IC50 | SMILES |
| --- | --- |
| 77.6 nM | C[C@H]1C[C@@]1(NC(=O)c1cc2cc(C#N)ccc2[nH]1)c1cnn(-c2ccccc2)c1 (single isomer, unassigned) [Compound 9, enantiomer 1] |
| 43.7 nM | C[C@H]1C[C@@]1(NC(=O)c1cc2cc(C#N)ccc2[nH]1)c1cnn(-c2ccccc2)c1 (single isomer, unassigned) [Compound 9, enantiomer 2] |
| 28.2 nM | C[C@H]1C[C@@]1(NC(=O)c1cc2cc(Cl)ccc2[nH]1)c1cnn(-c2ccc(F)cc2)c1 (single isomer, unassigned) [Compound 11, enantiomer 1] |
| 10 nM | C[C@H]1C[C@@]1(NC(=O)c1cc2cc(Cl)ccc2[nH]1)c1cnn(-c2ccc(F)cc2)c1 (single isomer, unassigned) [Compound 11, enantiomer 2] |
| 91.2 nM | O=C(NC1(c2cnn(-c3ccccc3)c2)CC1)c1cc2cc(Cl)ccc2[nH]1 [Compound 5] |

target: hIDO1 (Homo sapiens (Human), UniProt P14902); assay: IDO1 cellular assay in HEK293 cells transiently expressing hIDO1; assay type: cell-based; conditions: HEK293 cell line transiently expressing hIDO1, n=1
Sequence (P14902 whole entry): as above
Description: Compounds to be tested were serially diluted in ten 3-fold steps in DMSO starting from 10 mM DMSO stocks. Compound dilutions or DMSO alone were then dispensed from the dilution plate into a Greiner black 384-well assay plate (catalog #781086) using an Echo 550 acoustic liquid handler (Labcyte).
HEK293 cell pellets were resuspended to 5×10^5 cells/mL in complete HEK293 culture media (89% DMEM, 10% FBS, 1% penicillin/streptomycin). Suspended cells (2 mL) were dispensed into each well of a 6-well Corning plate (Catalog#3516). Cells were allowed to attach and were incubated for 20 hours at 37 degrees Celsius in a 5% CO2 incubator. […]
Media was removed from the cells which were then washed with 2 mL Dulbecco's phosphate-buffered saline (DPBS). […] Plates were incubated at 37 degrees in a 5% CO2 incubator overnight to develop fluorescence. […] The resulting fluorescence was measured in an Envision plate reader (Perkin Elmer) with a 400/25 nm excitation filter and an 510/20 nm emission filter.
The fluorescence intensity of each well was corrected for the background observed in wells with untransfected cells and was expressed as a fraction of the intensity observed in wells of IDO1 transfected cells and DMSO only. Potencies were calculated by […] to the four parameter logistic IC50 equation.

| SMILES | IC50 |
| --- | --- |
| C[C@@H]1C[C@]1(NC(=O)c1cc2cc(C#N)ccc2[nH]1)c1cnn(C)c1 (stereo in doubt) [Compound 12, 5-cyano-N-((1R,2R)-2-methyl-1-(1-methyl-1H-pyrazol-4-yl)cyclopropyl)-1H-indole-2-carboxamide] | 202 nM |
